Assay results as given in patent US20070259837A1, “Use of Non-Glucocorticoid Steroids for the Treatment of Muscular Dystrophy” (SANTHERA PHARMACEUTICALS (SCHWEIZ) AG, priority 2004, published 2007).
Like-named read-outs stand apart in the source and are kept apart here.

Test system: utrophin protein in human muscle cells derived from DMD patients
Assay: Cell-based ELISA for normalized utrophin protein level in primary human myotube cultures
Conditions: for % UTR vs. PDN (normalized utrophin protein as % of PDN-treated sister cultures): same experiment; for activity at 0.5 µM: Myotube, read-out: % UTR vs. DMSO (normalized utrophin protein over DMSO-solvent treated control)
Description: The method used to detect and determine utrophin-inducing activity of non-glucocorticoid steroids has been described previously (Courdier-Fruh, I., Barman, L., Briguet, A. & Meier, T.; 2002, Neuromuscul. Disord.; 12 Suppl:S95). Briefly, primary human muscle cell cultures were prepared according to standard protocols (Askanas V, Kwan H, Alvarez R B, Engel W K, Kobayashi T, Martinuzzi A, Hawkins E F., 1987, J Neurocytol., 16:523-537). Test compounds and the glucocorticoid 6α-methylprednisolone-21 sodium succinate (Pharmacia & Upjohn; Solu-Medrol®, PDN) as reference compound were applied at 500 nM final concentration as soon as myoblasts started to differentiate into myotubes. Incubation with the test compound was ended as soon as well differentiated myotubes have formed, typically resulting in an incubation time with a test compound for 3-7 days.
Normalized concentrations of utrophin protein in human muscle cells cultured in microtiter plates were determined by a cell-based enzyme-linked immunosorbent assay (ELISA) procedure that allows a successive readout for the cell density and utrophin protein level. For calibration, the cell density and differentiation was determined by absorbance measurements of the total dehydrogenase enzyme activity in each well using the colorimetric CellTiter 96®AQ One Solution Reagent Proliferation Assay (Promega) according to the manufacturer's recommendation. Subsequently, cells were fixed, washed, permeabilized with 0.5% (v/v) Triton X-100 and unspecific antibody binding-sites were blocked by standard procedures. Utrophin protein levels were determined immunologically with utrophin-specific primary antibodies (mouse monoclonal antibody to the amino terminal portion of utrophin, NCL-DRP2, Novocastra Laboratories) and with appropriate peroxidase-coupled secondary antibodies using QuantaBlu™ Fluorogenic Peroxidase Substrate Kit (Pierce) for detection. Fluorescence measurements were carried out with a multilabel counter (Wallac) at λex=325 nm and at λem=420 nm. The primary readout of this signal is presented in arbitrary units. For calibration, the arbitrary units representing the relative utrophin protein content of each well were divided by the corresponding cell-titer absorbance value to correct for cell density. For comparison between experiments, the cell-titer corrected readout for utrophin protein content in each well was expressed in percent of solvent treated control cultures (set to 100%). PDN was included in all experiments as reference glucocorticoid, N=3-5 for each compound tested.
Non-glucocorticoid test compounds, applied in a concentration of 500 nM, were regarded as “positive” in case the increase in the level of utrophin protein was at least 20% (mean value) over control cultures treated with the appropriate dilution of DMSO solvent as control and containing no test compound.
A range of different pharmaceutical compounds were tested for their ability to increase levels of utrophin protein in primary human myotube cultures. The cell-based ELISA protocol used to detect the level of utrophin protein is provided above and described in Courdier-Fruh, I., Barman, L., Briguet, A. & Meier, T, 2002, Neuromuscul. Disord.: 12, Suppl:S95. Briefly, fixed and permeabilized human muscle cells derived from DMD patients and cultured in 96-well cell culture plates were incubated with antibodies specific for utrophin at a dilution of 1:1'000 in blocking solution (phosphate buffered saline (PBS) supplemented with 2% fetal calf serum and 1% bovine serum albumin) for 10-15 hours at 4° C. Following several washing steps with 0.1% Triton X-100 in PBS, peroxidase-coupled secondary antibodies diluted 1:3'000 in blocking solution were applied in each well for 1-2 hours at room temperature. Signal detection, data acquisition and normalization was performed as described above and in Courdier-Fruh, I., Barman, L., Briguet, A. & Meier, T, 2002, Neuromuscul. Disord.: 12, Suppl:S95. […]

[1] = 500 nM compound, human muscle cultures, mean value, N=3-6

Row | Compound | % UTR vs. PDN (normalized utrophin protein as % of PDN-treated sister cultures) [1] [%] | activity at 0.5 µM (Homo sapiens) [%] | % UTR vs. DMSO (normalized utrophin protein over DMSO-solvent treated control) [1] [%] | activity at 0.5 µM [1] [%]
1 | C[C@]12CCC3C(CC[C@H]4C[C@@H](OC(=O)c5ccccc5)CC[C@]34C)C1CC[C@@H]2OC(=O)c1ccccc1 (some centres unmarked) [Example 38] | 108 | 126 | – | –
2 | Norethisterone [Example 40] | 106 | – | 134 | –
3 | CC(=O)O[C@H]1CC[C@]2(C)C3C(=O)[C@@H](OC(C)=O)[C@]4(C)C5[C@H](C[C@H]4[C@@H]3CC[C@H]2C1)O[C@]1(CCC(C)CO1)[C@H]5C (some centres unmarked) [Example 24] | 103 | 134 | – | –
4 | C[C@]12CC[C@H](Cl)CC1=CCC1C2CC[C@]2(C)C(=O)CCC12 (some centres unmarked) [Example 50] | 98 | 123 | – | –
5 | CC(C)CCCC(C)[C@H]1CCC2C3C[C@@H](O)[C@@]4(O)C[C@@H](O)CC[C@]4(C)C3CC[C@@]21C (some centres unmarked) [Example 35] | 94 | 122 | – | –
6 | CC(C)CCCC(C)[C@H]1CCC2C3CC[C@H]4CC(=O)CC[C@]4(C)C3CC[C@@]21C (some centres unmarked) [Example 32] | 104 | 132 | – | –
7 | CC(=O)O[C@H]1CC[C@]2(C)C3CC[C@]4(C)C(C(C)=O)=CCC4C3CC[C@H]2C1 (some centres unmarked) [Example 60] | 101 | 127 | – | –
8 | CC(=O)C1CCC2C3CC[C@H]4C[C@H](O)CC[C@]4(C)C3C[C@H](O)[C@]12C (some centres unmarked) [Example 65] | 97 | 121 | – | –
9 | C#C[C@]1(OC(C)=O)CCC2C3CCC4=C[C@@H](OC(C)=O)CC[C@@H]4C3CC[C@@]21C (some centres unmarked) [Example 45] | 99 | – | – | 130
10 | CC(C)CCCC(C)[C@H]1CCC2C3=CC[C@H]4C[C@@H](O)CC[C@]4(C)C3CC[C@@]21C (some centres unmarked) [Example 33] | 99 | 125 | – | –
11 | CC(CCC(=O)O)C1CCC2C3CC(=O)[C@@H]4C[C@H](O)CC[C@]4(C)C3CC[C@]12C (some centres unmarked) [Example 5] | 108 | – | – | 136
12 | CC(C)C/C=C\C(C)[C@H]1CC[C@@]2(C)C3=CC=C4C(C)(C)[C@@H](O)CC[C@]4(C)C3CC[C@]12C (some centres unmarked) [Example 36] | 96 | 122 | – | –
13 | CC(=O)[C@@]12O[C@@H]1CC1C3CC(C)=C4C[C@@H](O)CC[C@]4(C)C3CC[C@@]12C (some centres unmarked) [Example 61] | 100 | 130 | – | –
14 | CC1CC[C@@]2(OC1)O[C@H]1C[C@H]3[C@@H]4CC[C@H]5CC(=O)CC[C@]5(C)C4CC[C@]3(C)C1[C@@H]2C (some centres unmarked) [Example 28] | 93 | 120 | – | –
15 | C[C@]12CCC3C(CC[C@H]4C[C@@H](OC(=O)c5ccccc5)CC[C@]34C)C1CC(=O)C2 (some centres unmarked) [Example 46] | 112 | 131 | – | –
16 | CCC(=O)O[C@H]1CC[C@]2(C)C3CC[C@]4(C)C(=O)CCC4C3CC[C@H]2C1 (some centres unmarked) [Example 43] | 99 | 128 | – | –

Row | Compound | % UTR vs. PDN (normalized utrophin protein as % of PDN-treated sister cultures) [1] [%] | activity at 0.5 µM (Homo sapiens) [%] | % UTR vs. DMSO (normalized utrophin protein over DMSO-solvent treated control) [1] [%] | activity at 0.5 µM [1] [%]
17 | CCC(=O)O[C@H]1CCC2C3CCC4=CC(=O)CC[C@]4(C)C3CC[C@@]21C (some centres unmarked) [Example 48, Testosterone propionate] | 98 | 122 | – | –
18 | CC(CCC(=O)O)C1CCC2C3CC[C@@H]4C[C@H](OC(=O)c5ccccc5)CC[C@]4(C)C3C(=O)C[C@]12C (some centres unmarked) [Example 6] | 106 | 123 | – | –
19 | CC(=O)OCC(=O)C1=CCC2C3CC[C@H]4C[C@@H](OC(C)=O)CC[C@]4(C)C3CC[C@]12C (some centres unmarked) [Example 59] | 102 | 121 | – | –
20 | C[C@]12C[C@H](O)C3C(CC[C@@H]4C[C@H](O)CC[C@]34C)C1CCC2C(=O)CO (some centres unmarked) [Example 69] | 95 | 123 | – | –
21 | C[C@]12CCC3c4ccc(OC(=O)c5ccccc5)cc4CCC3C1CC[C@@H]2O (some centres unmarked) [Example 73] | 105 | – | – | 132
22 | CC(=O)O[C@H]1CCC2C3CCc4cc(O)ccc4C3CC[C@@]21C (some centres unmarked) [Example 77] | 102 | 128 | – | –
23 | CC(CCC(=O)O)C1CCC2C3CC[C@@H]4C[C@H](O)CC[C@]4(C)C3CC[C@]12C (some centres unmarked) [Example 9] | 98 | – | – | 119
24 | CC(C)CCCC(C)[C@H]1CCC2C3C(=O)C[C@H]4C[C@@H](OC(=O)c5ccccc5)CC[C@]4(C)C3CC[C@@]21C (some centres unmarked) [Example 30] | 109 | 127 | – | –
25 | CC1CC[C@@]2(OC1)O[C@H]1C[C@H]3[C@@H]4CC[C@H]5C[C@@H](OC(=O)c6ccccc6)CC[C@]5(C)C4=CC[C@]3(C)C1[C@@H]2C (some centres unmarked) [Example 22] | 106 | 123 | – | –
26 | CC(=O)O[C@@H]1CC[C@]2(C)C3CC[C@]4(C)[C@@H](C(=O)O)[C@@H](OC(C)=O)C[C@]4(O)C3CC[C@@H]2C1 (some centres unmarked) [Example 19] | 98 | 123 | – | –
27 | CC(=O)O[C@@H]1CC[C@]2(C)C3C(=O)C[C@]4(C)C(C(C)CCC(=O)O)CCC4C3CC[C@@H]2C1 (some centres unmarked) [Example 4] | 112 | 130 | – | –
28 | C[C@]12CCC(=O)C=C1CC[C@@H]1[C@@H]2CC[C@@]2(C)[C@H]1CC[C@]2(O)C(=O)CO [Example 53, Cortexolone] | 111 | – | – | 146
29 | CC1CC[C@@]2(OC1)O[C@H]1C[C@H]3[C@@H]4CC[C@H]5C[C@@H](OC(=O)c6ccccc6)CC[C@]5(C)C4=CC(=O)[C@]3(C)C1[C@@H]2C (some centres unmarked) [Example 20] | 113 | 131 | – | –
30 | COc1ccc2c(c1)CCC1C2CC[C@@]2(C)C1CC[C@]2(C)O (some centres unmarked) [Example 79] | 98 | 126 | – | –
31 | C[C@@]12C=CCC1C1CC[C@H]3C[C@H](O)CC[C@]3(C)C1CC2 (some centres unmarked) [Example 47] | 98 | 127 | – | –
